According to PubChem BioAssay AID179 (DTP/NCI, 2004):
Activity calls are given as the source filed them.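 How the source made its calls: active means compounds giving half or more protection of infected cells from virus-caused growth loss, again on retest; inactive means the rest.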 Where a SMILES comes first, the peptide text is derived from it. [ ]: non-standard residue; d: D form. The star is where a group is joined. NMeF = CN[CH](Cc1ccccc1)C(=O)O; NMeV = CN[CH](C(=O)O)C(C)C; Boc = CC(C)(C)OC(=O)*

System: CEM cells HIV-1 protection, formazan growth assay
Assay: NCI AIDS Antiviral Assay
Settings: for IC50: measured here: growth of uninfected CEM cells
Outline: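 Human CEM cells, uninfected and HIV-1-infected, exposed to five drug concentrations; growth measured by soluble formazan assay and scored as percent protection from infection, with protecting compounds retested.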

| SMILES | EC50 | IC50 | outcome |
| --- | --- | --- | --- |
| O=C(CC1=NC2NN(c3ccccc3)C(=O)C2=C1CC(=O)c1ccccc1)c1ccccc1 (configuration not stated) | > 575 µM | 174 µM |  |
| C=C(C(N)=O)c1ccc([N+](=O)[O-])o1 | > 200 µM | 3.47 µM |  |
| O=S(=O)(OC1CC12CCCCC2c1ccccc1)c1ccccc1 (configuration not stated) | > 200 µM | > 200 µM |  |
| COc1cc(C(=O)O)ccc1OS(=O)(=O)O | > 200 µM | > 200 µM |  |
| CCC(C)CC(C)CC(C)/C=C(\C)C1=C(C)CC(C)(O)O1 (configuration not stated) |  |  | inactive |
| Brc1ccc2c(ccc3nc4nnnn4nc32)c1 | > 17.4 µM | > 17.4 µM |  |
| O=C(O)c1ccc[n+](CC(=O)c2ccc(O)c(O)c2)c1 | 0.0631 µM | > 200 µM |  |
| O=C1NC(=O)C(C(=O)C(=O)Nc2ccc(Cl)cc2Cl)C(=O)N1 | > 275 µM | > 275 µM |  |
| O=C(O)CN1CCN2CCCCCCCCN(CC1)CCN(CC(=O)O)CC2 | > 200 µM | 13.2 µM |  |
| CN(C)C(=S)/N=c1\ssc(=Nc2ccccc2)n1C |  |  | inactive |
| C(=N\NC1=NCCCN1)/c1ccc2ccccc2c1 | > 200 µM | 8.32 µM |  |
| CCCCCCCCOCC(COC(=O)CCCCCCC)OC(=O)CCCCCCC (configuration not stated) | > 151 µM | 37.2 µM |  |
| CCc1ccccc1N1CCN(C(=O)c2cc(OC)c(OC)c(OC)c2)CC1 | > 93.3 µM | 0.0295 µM |  |
| Cc1ccc(N(C(=O)CC(=O)NN)C(=O)c2ccccc2Cl)cc1 | > 269 µM | > 269 µM |  |
| CC(C)C(NC(=O)OC(C)(C)C)C(=O)N(C)C(Cc1ccccc1)C(=O)N(C)C(C(=O)O)C(C)C (stereo not drawn) (Boc-Val-[NMeF]-[NMeV]-OH; configuration not given here) | > 200 µM | > 200 µM |  |
| COC(=O)Cc1nn2c(nc1=O)sc1ccc3ccccc3c12 | > 69.2 µM | > 69.2 µM |  |
| N#Cc1ccccc1SSc1ccccc1C#N | > 200 µM | 11.7 µM |  |
| CC(C)c1ccccc1NC(=O)/C(Cl)=C1/Sc2ccccc2NC1=O | > 10 µM | > 10 µM |  |
| COc1cc2c(cc1OCc1ccccc1)C=CN(C(=O)c1ccccc1)C2C#N (configuration not stated) |  |  | inactive |
| O=C(O)C1CC2C3C=CC(C3)C2C1 (configuration not stated) (tested in a mixture with another compound) | > 64.6 µM | 45.7 µM |  |
| O=S(=O)(O)SC/C=C\CSS(=O)(=O)O |  |  | inactive |

| SMILES | EC50 | IC50 | outcome |
| --- | --- | --- | --- |
| COC(=O)[C@H](CCSC)NC(=O)N[C@H](C)c1ccccc1 | > 200 µM | > 200 µM |  |
| CN1CN(c2ccccc2)C2(CCN(CCCSc3ccccc3NC(=O)/C=C/c3ccccc3)CC2)C1=O | > 200 µM | 3.31 µM |  |
| CC1=C(C(=O)OC23CC4CC(CC(C4)C2)C3)C(c2ccccc2OC(F)F)C(C(=O)OC23CC4CC(CC(C4)C2)C3)=C(C)N1 (configuration not stated) | > 100 µM | > 100 µM |  |
| COC(=O)c1ccc(Cl)cc1NC(=O)C1CCCCC1 |  |  | inactive |
| O=c1c(OC2OC(CO)C(O)C(O)C2OC2OCC(O)(CO)C2O)c(-c2ccc(O)cc2)oc2cc(O)cc(O)c12 (configuration not stated) | > 42.7 µM | > 42.7 µM |  |
| COCCN1C(=O)C(NC(C)=O)C1COC(C)(C)C (configuration not stated) | > 912 µM | > 912 µM |  |
| CCOC(=O)NC(=S)NN(C)C1=NCC(C)(C)S1 | > 200 µM | > 200 µM |  |
| COc1ccc(-c2cc(-c3ccccc3)[nH]c(=S)c2C#N)cc1 | > 200 µM | 67.6 µM |  |
| Cc1ccc(OCCn2cc(Nc3ccccc3)c(=O)n(CCOc3ccc(C)cc3)c2=O)cc1 | > 200 µM | 174 µM |  |
| CC1=C(C#N)C2(N)OC1(C)C1C(=O)C=CC(=O)C12 (configuration not stated) | > 200 µM | 23.4 µM |  |
| N#Cc1c(N)[nH]c2ccc(Sc3ccccc3)cc12 | > 70.8 µM | 0.0832 µM |  |
| O=S(=O)(Sc1ccccc1)C(c1ccccc1)c1ccccc1 | > 132 µM | 21.4 µM |  |
| [N-]=[N+]=NC[C@H]1OCO[C@H](CN=[N+]=[N-])[C@H]2OCCOCCOc3ccccc3OCCOCCO[C@@H]21 | > 200 µM | > 200 µM |  |
| O=C1NNC2NC(=O)C3(NN2C1=O)c1ccccc1-c1ccccc13 (configuration not stated) | > 100 µM | > 100 µM |  |
| O=Nc1ccc(O)cc1O | > 200 µM | 148 µM |  |
| COc1cc(CC2C(=O)NC(=O)NC2=O)ccc1OCc1ccccc1 |  |  | inactive |
| CCC(=O)CCC1=Nc2nnc(CCCCc3nnc4n3C(=O)C(CCC(=O)CC)=N4)n2C1=O | 427 µM | 537 µM |  |
| CC(=O)OCC1OC(N2C(S)=C(C#N)C(c3ccco3)C(C(C)=O)=C2c2ccccc2)C(OC(C)=O)C(OC(C)=O)C1OC(C)=O (configuration not stated) | 95.5 µM | > 200 µM |  |
| COc1ccc(NC(=O)c2cc3cc(N=Nc4ccc(Br)cc4)ccc3oc2=O)cc1 |  |  | inactive |
| CCOC(=O)/C(=C\c1cccc(OC)c1)P(=O)(OCC)OCC | > 525 µM | 11.5 µM |  |
| NC1CC(=O)c2cc(Br)sc21 (configuration not stated) | > 200 µM | > 200 µM |  |
